Measured values as given in paper PMC3757248, “Antiestrogen-binding site ligands induce autophagy in myeloma cells that proceeds through alteration of cholesterol metabolism” (Oncotarget, 2013).

Legend:
LP-1 cells [1] = assay: Sterols accumulated in cells, HPLC and GC/MS; format: cell-based, human; details: LP1, 48 h incubation
Description: (§1) The organic layer was reduced to dryness under a flux of argon and the residue was resuspended in ethanol. Sterols were analyzed by liquid chromatography and gas-liquid chromatography as described before. Neutral lipids and sphingomyelin analyses were done according to previously published procedures.

RPMI 8226 cells [2] = assay: Sterols accumulated in cells, HPLC and GC/MS; format: cell-based, human; details: RPMI 8226, 48 h incubation
Description: as §1

RPMI 8226 cells [3] = assay: Electron microscopy for MLBs, AVs and UVs; format: cell-based, human; details: 48 h, 10 μM drug (PBPE 40 μM)
LP-1 cells [4] = assay: Electron microscopy for MLBs, AVs and UVs; format: cell-based, human; details: 48 h, 10 μM drug (PBPE 40 μM)
LP-1 cells [5] = assay: Presence of 5,6-EC in cells by GC/MS; format: cell-based, human; details: 48 h, 10 μM drug (PBPE 40 μM)
Description: as §1

RPMI 8226 cells [6] = assay: Presence of 5,6-EC in cells by GC/MS; format: cell-based, human; details: 48 h, 10 μM drug (PBPE 40 μM)
Description: as §1

HMCLs = assay: Free sterol accumulation in HMCLs; format: cell-based, human
Description: as §1

RPMI 8226 and LP-1 cells [7] = assay: Degradation of long-lived proteins; format: cell-based, human; details: both cell lines, 10 μM OHT, 40 μM PBPE
Description: The degradation of long-lived proteins was measured as described previously. Briefly, HMCLs were incubated for 24 h at 37°C with 0.2 μCi/ml of L-[[14]C]valine in complete medium. Cells were then washed resuspended in medium with no nutrients but supplemented with 10 mM valine. After the first h of incubation, the chase medium was replaced by complete medium and the incubation continued for 5 h. […] Radiolabeled proteins present in the chase medium as well as in cells were precipitated with 10% trichloroacetic acid (v/v) at 4°C. Radioactivity was measured by scintillation counting. The rate of protein degradation was calculated from the ratio of radioactivity in the medium to that of precipitated cell fraction.

RPMI 8226 and LP-1 cells [8] = assay: Intracellular free sterol, TG and SM contents; format: cell-based, human; details: 5 µM OHT, 20 µM PBPE or 5 µM RU 58668 for three days
Description: as §1

Karpas 620 = system: Karpas 620; parameters: method as in earlier work; details: cited from earlier work
LP-1 = system: LP-1; parameters: method as in earlier work; details: cited from earlier work
NCI-H929 = system: NCI-H929; parameters: method as in earlier work; details: cited from earlier work
OPM-2 = system: OPM-2; parameters: method as in earlier work; details: cited from earlier work
RPMI 8226 = system: RPMI 8226; parameters: method as in earlier work; details: cited from earlier work
U266 = system: U266; parameters: method as in earlier work; details: cited from earlier work
MM tumors = system: MM tumors; parameters: method as in PMID 20033476, PMID 16753295; details: xenografted mice bearing MM tumors; cited from earlier work
AEBS = AEBS (Homo sapiens, UniProt Q15125+Q9UBM7); assay: Binding to the AEBS in HMCLs; parameters: endogenous in cells; host or cells: RPMI 8226 and LP-1 human multiple myeloma cell lines
Chain of AEBS (Q15125 whole entry): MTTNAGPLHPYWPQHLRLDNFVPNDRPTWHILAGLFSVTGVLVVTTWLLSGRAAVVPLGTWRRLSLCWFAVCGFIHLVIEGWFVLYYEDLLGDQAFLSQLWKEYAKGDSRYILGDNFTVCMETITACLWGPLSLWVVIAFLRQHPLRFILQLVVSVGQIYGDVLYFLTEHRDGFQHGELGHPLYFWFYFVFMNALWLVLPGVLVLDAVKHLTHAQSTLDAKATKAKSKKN
Chain of AEBS (Q9UBM7 whole entry): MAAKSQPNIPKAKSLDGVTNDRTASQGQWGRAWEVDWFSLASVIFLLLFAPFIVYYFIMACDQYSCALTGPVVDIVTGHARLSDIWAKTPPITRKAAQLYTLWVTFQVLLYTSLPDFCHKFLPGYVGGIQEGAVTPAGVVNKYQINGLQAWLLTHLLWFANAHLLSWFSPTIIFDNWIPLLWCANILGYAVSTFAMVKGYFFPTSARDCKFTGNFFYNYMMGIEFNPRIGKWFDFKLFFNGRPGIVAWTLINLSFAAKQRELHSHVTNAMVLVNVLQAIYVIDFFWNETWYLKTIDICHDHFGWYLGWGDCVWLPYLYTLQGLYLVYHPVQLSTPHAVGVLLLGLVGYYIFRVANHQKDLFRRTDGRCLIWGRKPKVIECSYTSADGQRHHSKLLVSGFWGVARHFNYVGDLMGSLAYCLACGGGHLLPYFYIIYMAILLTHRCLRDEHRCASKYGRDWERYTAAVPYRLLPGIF

ChEH = ChEH (Homo sapiens, UniProt Q15125+Q9UBM7); assay: ChEH activity in HMCLs (TLC); format: cell-based; parameters: endogenous in cells; host or cells: RPMI 8226 and LP-1 human multiple myeloma cell lines; details: OHT, Tam, RU 58668 10 μM, PBPE 40 μM
Chain of ChEH (Q15125 whole entry): as the sequence (Q15125 whole entry) above
Chain of ChEH (Q9UBM7 whole entry): as the sequence (Q9UBM7 whole entry) above
From the text: Cells were then pelleted and extracted with chloroform/methanol (2/1). The organic layer was reduced to dryness under a flux of argon and the residue was resuspended in EtOH. Samples were applied to thin layer chromatography (TLC) plates and developed using ethyl acetate as previously described. The radioactive metabolites were visualized by autoradiography using Kodak Biomax MS films.

[9] = RPMI 8226, presence of 500 μM Vit E

Compound: CC/C(=C(\c1ccc(O)cc1)c1ccc(OCCN(C)C)cc1)c1ccccc1 [OHT]
- Desmosterol (LP-1 cells [1]): 44.4 percent by the weight of total sterol
- Zymostenol (LP-1 cells [1]): 1.9 percent by the weight of total sterol
- Zymostenol (RPMI 8226 cells [2]): 1.8 percent by the weight of total sterol
- AV (RPMI 8226 cells [3]; RPMI 8226, absence of Vit E): + + (The sign + means that 80 % cells were positive and contained at least 5 vesicles)
- MLB (RPMI 8226 cells [3]; RPMI 8226, absence of Vit E): + + (The sign + means that 80 % cells were positive and contained at least 5 vesicles)
- UV (RPMI 8226 cells [3]; RPMI 8226, absence of Vit E): + (The sign + means that 80 % cells were positive and contained at least 5 vesicles)
- AV (RPMI 8226 cells [3]; [9]): + + (The sign + means that 80 % cells were positive and contained at least 5 vesicles)
- MLB (RPMI 8226 cells [3]; [9]): + + (The sign + means that 80 % cells were positive and contained at least 5 vesicles)
- UV (RPMI 8226 cells [3]; [9]): − (otherwise they were considered as negative (-))
- AV (LP-1 cells [4]; LP-1, absence of Vit E): + + (The sign + means that 80 % cells were positive and contained at least 5 vesicles)
- MLB (LP-1 cells [4]; LP-1, absence of Vit E): + + (The sign + means that 80 % cells were positive and contained at least 5 vesicles)
- UV (LP-1 cells [4]; LP-1, absence of Vit E): + (The sign + means that 80 % cells were positive and contained at least 5 vesicles)
- AV (LP-1 cells [4]; LP-1, presence of 500 μM Vit E): + + (The sign + means that 80 % cells were positive and contained at least 5 vesicles)
- MLB (LP-1 cells [4]; LP-1, presence of 500 μM Vit E): + + (The sign + means that 80 % cells were positive and contained at least 5 vesicles)
- UV (LP-1 cells [4]; LP-1, presence of 500 μM Vit E): − (otherwise they were considered as negative (-))
- 5,6-EC (LP-1 cells [5]; LP-1, absence of Vit E): +
- 5,6-EC (LP-1 cells [5]; LP-1, presence of 500 μM Vit E): −
- 5,6-EC (RPMI 8226 cells [6]; RPMI 8226, absence of Vit E): +
- 5,6-EC (RPMI 8226 cells [6]; [9]): −
- free sterol accumulated (HMCLs): accumulation of desmosterol
- rate of long-lived protein degradation (RPMI 8226 and LP-1 cells [7]): stimulated
- intracellular free sterol, triacylglycerol (TG) and sphingomyelin (SM) contents (RPMI 8226 and LP-1 cells [8]): increases
- SERM and SERDs effects on MM cell lines (Karpas 620): No response
- SERM and SERDs effects on MM cell lines (LP-1): G1-arrest and apoptosis
- SERM and SERDs effects on MM cell lines (NCI-H929): G1-arrest and apoptosis
- SERM and SERDs effects on MM cell lines (OPM-2): No response
- SERM and SERDs effects on MM cell lines (RPMI 8226): G1-arrest and apoptosis
- SERM and SERDs effects on MM cell lines (U266): G1-arrest and apoptosis
- tumor growth (MM tumors): block tumor growth
- affinity for the AEBS (AEBS): high affinity
- ChEH activity, conversion of 5,6-EC into CT by TLC (ChEH): ChEH activity was inhibited
